From publication PMC4627230, “Identification of TAX2 peptide as a new unpredicted anti-cancer agent” (Oncotarget, 2015)

What was measured:
HUVECs = test: Endothelial tube formation assay on matrigel; format: cell-based, human
Description: Figure 2 TAX2 peptide impairs endothelial cell migration and inhibits angiogenesis in vitro and ex vivo A. HUVECs were treated with TAX2 (100 μM) or scrambled peptide (Ctrl, 100 μM). CD47 was immunoprecipitated from total protein lysates using anti-CD47 (clone B6H12) and non-specific IgGs were used as a negative control. Immunocomplexes were then submitted to SDS-PAGE and immunoblotted (IB) using specific TSP-1 and CD47 antibodies. Histogram represents the quantification of co-immunoprecipitated TSP-1 relative to immunoprecipitated CD47. Results are expressed as percentage compared to control (n = 3 separate experiments, t test). B. HUVECs (1 × 10^5 per well) were grown at confluence and then cell proliferation was inhibited by incubating with 10 μg/mL mitomycin C for 2 h. Migration assays were performed for 9 h with or without TAX2 peptide (100 μM), as described in Materials and Methods. Photographs (100×) were taken every 3 h. Graph represents the quantification of the wounded area. Each value is the mean of 3 independent experiments, each performed in quadruplicate. C. HUVECs (5 × 10^4 per well) were plated into the upper compartment of a Transwell membrane and incubated for 12 h in EGM-2 in the presence of 100 μM TAX2 peptide. Hoechst-stained migrating cells attached on outside surface of the top chamber were photographed (20× objective) and counted. Results are expressed as percentage of migrated cells as compared to control. Each value represents the mean of 5 independent experiments, each performed in triplicate.*p < 0.05, compared to control; t test. D. HUVECs (5 × 10^4) were cultured on matrigel layers in control conditions (Ctrl) or in the presence of TAX2. After 8 h incubation, HUVEC tube-like formation was observed on an inverted microscope (40×) and quantification of network total length was done using ImageJ software. Numeration of branching points, tubes and nodal structures was conducted using S.CORE system. Data are expressed as the mean ± SE from at least 3 independent experiments, each performed in triplicate. […] F. Total RNAs were purified from HUVECs transfected with non-silencing siRNA (siCtrl) or siRNA targeting TSP-1 (siTSP-1). The transcriptional level of TSP-1 was assessed by RT-PCR and normalized to β-actin. […] After 6 days incubation in the presence of 100 μM TAX2 or control peptide (Ctrl), images were taken with an inverted microscope (40×) and microvessel area was quantified using ImageJ software. […]
Figure 3 Anti-angiogenic properties of TAX2 are mediated by TSP-1 binding to CD36 A. Expression of CD36 in HUVECs was assessed by immunoblotting (left panel) and immunofluorescence staining (right panel, red). […] The presence of TSP-1 in immunocomplexes was quantified by densitometric analysis relative to immunoprecipitated CD36. […]

HUVEC = HUVEC viability; format: cell-based, human
[1] = system: microvessel sprouting from mouse aortic rings (C57BL/6); test: Mouse aortic ring assay (ex vivo); details: 100 μM, 6 days, mouse aortic ring in matrigel
Description: Figure 2 TAX2 peptide impairs endothelial cell migration and inhibits angiogenesis in vitro and ex vivo A. HUVECs were treated with TAX2 (100 μM) or scrambled peptide (Ctrl, 100 μM). CD47 was immunoprecipitated from total protein lysates using anti-CD47 (clone B6H12) and non-specific IgGs were used as a negative control. Immunocomplexes were then submitted to SDS-PAGE and immunoblotted (IB) using specific TSP-1 and CD47 antibodies. Histogram represents the quantification of co-immunoprecipitated TSP-1 relative to immunoprecipitated CD47. Results are expressed as percentage compared to control (n = 3 separate experiments, t test). B. HUVECs (1 × 10^5 per well) were grown at confluence and then cell proliferation was inhibited by incubating with 10 μg/mL mitomycin C for 2 h. […] Graph represents the quantification of the wounded area. […] Hoechst-stained migrating cells attached on outside surface of the top chamber were photographed (20× objective) and counted. Results are expressed as percentage of migrated cells as compared to control. […] After 8 h incubation, HUVEC tube-like formation was observed on an inverted microscope (40×) and quantification of network total length was done using ImageJ software. […] Data are expressed as the mean ± SE from at least 3 independent experiments, each performed in triplicate. […] The transcriptional level of TSP-1 was assessed by RT-PCR and normalized to β-actin. […]

[2] = system: tumor vasculature of MIA PaCa-2 xenograft in BALB/C nu/nu mice; test: MIA PaCa-2 xenograft vascularization (μCT, dissection); format: in vivo, human tumor xenograft in mouse; details: 10 mg/kg i.p. 3 times a week for 4 weeks
Description: For the subcutaneous melanoma tumor model, suspensions of B16F1 cells (2.5 × 10^5 cells in 100 μL RPMI-1640 medium) were subcutaneously injected into the left flank of different randomized series of syngeneic C57BL/6 mice (n = 8–10 per group), as previously described. Intraperitoneal administrations of peptide (10 mg/kg mouse weight) or controls (physiological serum 0.9% (w/v) NaCl or a scrambled peptide) were performed at days 3, 5 and 7. In human pancreatic carcinoma xenograft experiments, 3 × 10^6 MIA PaCa-2 cells/mouse were implanted subcutaneously into the left flank of BALB/C athymic nude mice, then TAX2 intraperitoneal treatments (10 mg/kg mouse weight) were performed 3 times a week during 4 weeks starting at day 10 after tumor cells inoculation. Tumor volume was determined according to v = 0.5 A × B^2, where A denotes the largest dimension of the tumor and B represents the smallest dimension. At days indicated, mice were sacrificed and tumors were surgically extracted and fixed in 4% paraformaldehyde for further morphologic studies and for magnetic resonance imaging, or frozen for immunohistochemistry. Mice were also weighed every 2–3 days and daily checked for any modification in their behavior. Loss of 15% body weight was an indication for euthanasia as well as severe tumor necrosis, as it was sometimes associated with skin ulceration that would result in loss of body fluid and/or infection.
Animals were anesthetized by isoflurane (Forene, Abbott France, Rungis, France) inhalation (3% for induction and 1–1.5% for maintenance) and then after placed in a carbon fibers bed. CT images were acquired on a dedicated small animal μCT scanner (Skyscan 1076, Bruker, Kontich, Belgium) while continuously rotating the camera by 180° with the following parameters: 50 kV, 0.5 mm Al filter, 200 μA source current, 35 μm isotropic resolution, 180 ms exposure time, 4 projection images per 0.7° rotation step and a retrospective synchronization. […] Analysis of reconstructed images and quantification of the vascular network were performed using Amira 5.4.3 software.

In the case of “CEVSQLLKGDAC (disulfide) [TAX2, CD47-derived cyclic disulfide dodecapeptide …]”, the “formation of branching points, capillary tubes and nodal structures” value (HUVECs; HUVECs on matrigel, 8 h, S.CORE) is reported as “decreased”, the “inhibition of pseudo-tube network formation (total network length)” value (HUVECs; HUVECs on matrigel, 8 h, at least 3 experiments in triplicate) is reported as 40% and the “effect on lumen formation under TSP-1 gene silencing” value (HUVECs; HUVECs transfected with siTSP-1, matrigel, 8 h) is reported as “wholly abolished”. For the same sequence, the “prevention of capillary structure formation in presence of CD36 blocking antibody” value (HUVECs; HUVECs, 100 μM, 12 h, anti-CD36 blocking antibody, n = 3) was “wholly reversed”, the “cytotoxic effect on HUVECs” value (HUVEC) was “cannot be attributed to any cytotoxic effect” and the HUVEC viability (HUVEC; percent compared to control treatment, t test) was “not significant”. The “microvessel sprouting from the aorta” value [1] was “markedly inhibited”, the “tumor vasculature in dissections, day 38” value [2] was “decreased tumor vasculature” and the “tumor-associated vascular network in 3D reconstruction, day 38” value [2] was “strongly inhibit tumor-associated vascular network”. The “tumor vascularization until day 38” value ([2]; μCT, representative of n = 5) was “striking alteration of tumor vascularization”.
